Laboratory results as given in publication PMC9610434, “Discovery of 2′,6-Bis(4-hydroxybenzyl)-2-acetylcyclohexanone, a Novel FtsZ Inhibitor” (Molecules, 2022).
Where two headings read alike, the source gives them in different places.

Experiments:
[1] = tested on: S. pneumoniae; set-up: method as in PMID 18801997; conditions: cited from earlier work
[2] = biological target: T1, S. pneumoniae FtsZ (SpnFtsZ) (Streptococcus pneumoniae, UniProt A0A0H2ZNE0); conditions: cited from earlier work
[3] = tested on: Bacillus subtilis 168; set-up: method as in PMID 28002947; conditions: cited from earlier work
[4] = biological target: T1, S. pneumoniae FtsZ (SpnFtsZ); assay: Binding to SpnFtsZ by tryptophan fluorescence
Description: The binding of 3 to SpnFtsZ was assessed using tryptophan fluorescence. The decrease in the fluorescence intensity of SpnFtsZ in the presence of 3 was measured. Then, 2 μM of SpnFtsZ in 50 mM PIPES pH 7.4, 50 mM KCl, was incubated with different concentrations of 3 (0.2, 0.5, 1, 1.5, 2, 3, 4, 5, 7, 10), at 25 °C, for 10 min. The fluorescence spectra were measured at an emission range of 310 nm to 410 nm, after excitation at 295 nm in JASCO FP-8300 spectrofluorometer. Due to the absorbance of 3 at 340 nm, inner filter correction was performed using the below equation:(1) Fcorrected=Fobserved∗antilog ODex+ODem/2
The binding constant, Kd, was determined using the following equation:(2) ∆F=∆Fmax×L/Kd+L
ΔF is the change in the fluorescence intensity of SpnFtsZ, ΔFmax is the maximal change in the fluorescence of SpnFtsZ when the receptor site is fully occupied, and [L] is the concentration of 3.

[5] = biological target: T2, FtsZ from Bacillus subtilis (BsFtsZ) (Bacillus subtilis, UniProt P17865); assay: Transmission electron microscopy of BsFtsZ filaments; format: biochemical; conditions: 20 μM compound, 5 μM BsFtsZ
T2 construct: made in house
T2 sequence (P17865 whole entry): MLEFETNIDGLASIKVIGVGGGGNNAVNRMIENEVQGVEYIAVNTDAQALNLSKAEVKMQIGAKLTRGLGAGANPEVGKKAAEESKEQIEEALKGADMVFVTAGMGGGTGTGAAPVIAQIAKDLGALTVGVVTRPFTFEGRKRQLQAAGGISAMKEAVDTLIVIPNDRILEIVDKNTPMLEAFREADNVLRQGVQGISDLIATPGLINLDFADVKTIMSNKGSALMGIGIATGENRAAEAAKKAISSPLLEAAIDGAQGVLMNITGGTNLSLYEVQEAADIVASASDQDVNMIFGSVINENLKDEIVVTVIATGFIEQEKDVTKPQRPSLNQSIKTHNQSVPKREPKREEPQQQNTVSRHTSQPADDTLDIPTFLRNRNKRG
Description: In another experiment, BsFtsZ (5 μM) in PKM buffer was incubated without and with 20 μM 3 for 20 min, at 25 °C. The mixture was then polymerized by the addition of 1 mM GTP for 600 s, at 37 °C. Samples for imaging were prepared using the same procedure described above.

[6] = tested on: Bacillus subtilis 168; assay: Growth inhibition / MIC by agar dilution, Bacillus subtilis 168; format: cell-based
Description: (§1) The Minimum Inhibitory Concentration (MIC) was determined as described previously, following the agar dilution method. From an overnight culture of Bacillus subtilis 168 (Bs 168), 2% inoculation was performed to a fresh tube containing Luria Broth. When the bacteria reached an O.D600 = 0.4, the culture was serially diluted to a dilution factor of 10^4. Then, 20 μL of the diluted culture was spotted on plates containing different concentrations of 3 (0, 1, 3, 5, 7, 9, 10, 11, 12, 13 μM) and incubated, at 37 °C, for […], after which the colonies were counted. Similar procedure was performed for Streptococcus pneumoniae TIGR4. Bacteria were grown in Todd–Hewitt Yeast Broth up to 0.4 OD600 and serially diluted. Upon addition on to BHI agar plates containing different concentrations of 3 (0.5, 1, 1.5, 2, 3, 5, 7, 10 μM), the colonies were incubated for 24 h, at 37 °C, with 5% CO2. […] IC50 was determined by plotting percentage inhibition versus log of concentration of drug, using GraphPad Prism 7 software.

[7] = Cytotoxicity testing in mouse skin L929 cells; format: cell-based; conditions: read-out: GI50 (concentration for 50% cell growth inhibition)
[8] = tested on: SpnFtsZ; assay: Atomic force microscopy of SpnFtsZ filaments; format: biochemical, Streptococcus pneumoniae; conditions: 10 μM compound, 4 μM SpnFtsZ; control filaments 9.02 ± 5.2 nm
Description: Then, 4 μM SpnFtsZ in PKM buffer was incubated with or without 10 μM 3, for 20 min, at 25 °C. Upon addition of 1 mM GTP, FtsZ was polymerized for 300 s, at 37 °C. AFM samples were prepared according to a previously described method. Then, 20 μL of each sample was added onto the mica sheet and allowed to absorb on it for 15 min. The sheet was then washed with MilliQ and allowed to dry overnight. The samples were imaged the next day using MFP-3D BIO, Asylum Research USA.

[9] = tested on: tubulin; assay: Tubulin polymerization assay; format: biochemical, goat; conditions: 13 μM tubulin, light scattering at 350 nm
Description: Streptococcus pneumoniae FtsZ (SpnFtsZ) and Bacillus subtilis FtsZ (BsFtsZ) were purified as described previously. Tubulin from goat brain was purified as described previously. The concentration of all the proteins was estimated using Bradford’s reagent.
Tubulin polymerization was performed as described previously. Purified tubulin (13 μM) in PEM buffer (50 mM PIPES pH 6.8, 3 mM MgCl2 and 1 mM EGTA) + 10% DMSO was incubated with 3 for 10 min on ice. Then, 1 mM GTP was added to the mixture, and polymerization was monitored by light scattering in SoftMax Spectra Multi Plate reader for 30 min, at 37 °C. The excitation and emission wavelengths were set to 350 nm.

[10] = tested on: alkaline phosphatase; assay: Alkaline phosphatase activity assay; format: biochemical; conditions: 5, 10 and 20 μM, PNPP substrate
Description: Alkaline phosphatase assay was performed as described previously. Then, 2 U/mL Alkaline Phosphatase enzyme in glycine NaOH buffer, pH 10.4 with 100 mM glycine, 1 mM MgCl2, and 0.1 mM ZnCl2 was incubated with different concentrations (5, 10, and 20 μM) of 3 for 10 min on ice. Immediately after the addition of 250 μM para-4-nitrophenyl phosphate (PNPP), the absorbance at 410 nm was measured for 700 s in a JASCO V-730 spectrophotometer.

[11] = tested on: Z-ring in Bs 168 cells; assay: Immunostaining for Z-ring and nucleoid, Bs 168; format: cell-based, Bacillus subtilis; conditions: Bs 168, 8 μM, 10 min
Description: (§2) Immunostaining of Bs 168 cells was performed as described previously. Briefly, from an overnight culture of Bs 168, 2% inoculation was performed to a fresh tube containing Luria Broth. When the bacteria reached an O.D600 = 0.4, the culture was divided into two fractions. To one fraction, 8 μM 3 was added, and to another, an equal volume of DMSO. The cells were incubated at 37 °C under shaking conditions for 10 min. Cells were then fixed for 30 min with 2.8% formaldehyde and 0.04% glutaraldehyde. Cells were permeabilized using 0.1% Triton X-100 and then treated with 1 mg/mL lysozyme and 5 mM EDTA for 45 min. Treatment with 0.5% BSA for 30 min was performed to block non-specific binding sites. Then, 1 h treatment each with primary antibody, anti-FtsZ antibody raised in rabbit (1:50 dilution) and secondary antibody (1:400), Alexa Fluor^TM 594 goat anti-rabbit IgG (H+L) was performed. Nucleoid staining was performed with 1 µg/mL 4′-6-diamidino-2-phenylindole (DAPI) for 20 min. Images were captured using Confocal Laser Scanning Microscope—Carl Zeiss, LSM 780. Similar procedure was followed for Sp TIGR4, which was treated with 2 μM 3 for 1 h before following the above immunostaining procedure.

[12] = tested on: SpnFtsZ; assay: FtsZ sedimentation assay; format: biochemical, Streptococcus pneumoniae; conditions: 10 μM compound, 10 μM SpnFtsZ, p = 0.02
Description: SpnFtsZ (10 μM) in PKM buffer was incubated with different concentrations of 3 (0.5, 1, 3, 6, 10) for 20 min at 25 °C. The reaction mixture was allowed to polymerize by adding 1 mM GTP and incubated for 600 s, at 37 °C. The mixture was then subjected to ultra-centrifugation at 60,000 RPM for 30 min at 30 °C. The supernatant was collected and quantified using Bradford’s reagent. The amount of FtsZ present in the pellet was assessed by subtracting the supernatant concentration from the total protein [30].

[13] = tested on: S. pneumoniae TIGR4 cells; assay: Scanning electron microscopy of cell morphology; format: cell-based, Streptococcus pneumoniae; conditions: Sp TIGR4, 2 μM, 1 h, SEM
Description: Sp TIGR4 was grown as described above and treated with 2 μM 3 or equivalent volume of DMSO for 1 h. The cells were then fixed with 2.8% formaldehyde and 0.04% glutaraldehyde and resuspended in PBS as described earlier. A small volume (5 μL) was spotted on an aluminium foil and allowed to air dry completely. Images were captured using Field Emission Gun-Scanning Electron Microscope (FEG-SEM) JSM-7600F.

[14] = tested on: Streptococcus pneumoniae TIGR4; assay: Growth inhibition / MIC by agar dilution, Streptococcus pneumoniae TIGR4; format: cell-based; conditions: for MIC: Streptococcus pneumoniae
Description: as §1

[15] = tested on: SpnFtsZ; assay: Transmission electron microscopy of SpnFtsZ filaments; format: biochemical, Streptococcus pneumoniae; conditions: 10 μM compound
Description: SpnFtsZ (10 μM) in PKM buffer was incubated without and with 10 μM 3 for 20 min, at 25 °C. The mixture was then polymerized by the addition of 1 mM GTP for 200 s, at 37 °C. Samples for EM were prepared on a fresh carbon–formvar-coated copper EM grid according to a previously described method. Imaging was performed the next day using JEOL JEM 1220 HRTEM (200 kV). ImageJ software was used to determine the length of the FtsZ filaments.

[16] = tested on: Z-ring in Sp TIGR4; assay: Immunostaining for Z-ring and nucleoid, Sp TIGR4; format: cell-based, Streptococcus pneumoniae; conditions: Sp TIGR4, 2 μM, 1 h
Description: as §2

[17] = tested on: SpnFtsZ; assay: FtsZ polymerization by light scattering at 400 nm; format: biochemical, Streptococcus pneumoniae; conditions: 10 μM SpnFtsZ, 1 mM GTP, increasing concentration
Description: SpnFtsZ (10 μM) in 50 mM PIPES pH 7.4, 50 mM KCl and 5 mM MgCl2 (PKM) buffer was incubated with different concentrations of 3 (0, 1, 2, 3, 5, 6, 7) for 20 min, at 25 °C. After the addition of 1 mM GTP, the polymerization was monitored for 600 s, at 37 °C, using light scattering at 400 nm in a JASCO FP-8300 spectrofluorometer.

[18] = tested on: membrane of Bs 168 cells; assay: Membrane staining of live cells with FM 4-64; format: cell-based, Bacillus subtilis; conditions: Bs 168, 8 μM, 10 min
Description: Membrane staining of live Bs 168 cells was performed using FM 4–64 stain [28]. Bs 168 cells were grown as described above and treated with 8 μM 3 or equivalent volume of DMSO for 10 min. Cells were pelleted down and resuspended in PBS containing 10 μg/mL FM-4–64 dye. After incubation for another 10 min under shaking conditions in the dark, the cells were washed with PBS to remove excess dye. The cells were then mounted on the slide pre-coated with poly-L-lysine and covered with a coverslip. Images were captured in Confocal Laser Scanning Microscope—Carl Zeiss, LSM 780.

T1 sequence (A0A0H2ZNE0 whole entry): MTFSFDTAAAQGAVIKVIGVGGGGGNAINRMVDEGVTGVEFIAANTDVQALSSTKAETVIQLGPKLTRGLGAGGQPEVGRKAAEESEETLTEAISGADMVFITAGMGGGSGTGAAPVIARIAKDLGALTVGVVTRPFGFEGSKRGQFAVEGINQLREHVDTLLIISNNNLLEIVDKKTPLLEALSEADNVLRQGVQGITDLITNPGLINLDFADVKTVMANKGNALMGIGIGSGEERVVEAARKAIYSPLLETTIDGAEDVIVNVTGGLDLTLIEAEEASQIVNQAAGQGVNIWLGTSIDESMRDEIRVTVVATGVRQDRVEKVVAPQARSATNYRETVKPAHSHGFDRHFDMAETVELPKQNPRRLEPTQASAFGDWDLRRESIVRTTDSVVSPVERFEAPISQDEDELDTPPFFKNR

SMILES: NC(=O)c1c(F)ccc(OCc2nc3cc(Cl)cnc3s2)c1F [PC190723 4, PC190723]
- MIC [1]: more than 64 µg/mL
- MIC ([1]; converted from µg/mL): > 180 µM

SMILES: O=C(/C=C/c1ccc(O)cc1)C1CCC/C(=C\c2ccc(O)cc2)C1=O (centres unmarked) [Compound 1]
- Kd [2]: 4 ± 1.1 µM
- melting point: 225 to 227 °C
- IC50 ([3]; Bs168): 1.2 ± 0.5 µM
- MIC ([3]; Bs168 cells): 2.0 to 4.0 mg/L

SMILES: O=C(CCc1ccc(O)cc1)[C@@H]1CCC[C@H](Cc2ccc(O)cc2)C1=O [Compound 3, 2-(4-Hydroxybenzyl)-6-{3-(4-hydroxyphenyl)propanoyl}cyclohexan-1-one]
- Kd [4]: 2.2 ± 0.3 µM
- BsFtsZ aggregation (TEM) [5]: large aggregates of BsFtsZ
- MIC ([6]; Bacillus subtilis, 168, 6 h, Bs168, agar dilution, 6 h, 37 °C, read-out: MIC): 11 µM
- MIC ([6]; Bacillus subtilis, 168, Bs168 cells, converted from µM, read-out: MIC (equivalent)): ≤ 3.5 mg/L
- IC50 ([6]; Bacillus subtilis, 168, Bs168, inhibition of proliferation): 4.97 ± 0.01 µM
- GI50 [7]: 7 ± 2.35 µM
- average height of FtsZ aggregates (AFM) [8]: 233.2 ± 151.2 nm
- inhibition of tubulin polymerization [9]: no significant inhibition
- inhibition of alkaline phosphatase activity [10]: no detectable inhibitory activity
- effect on nucleoid separation ([11]; DAPI): no effect on the nucleoid separation
- dividing cells with a prominent Z-ring ([11]; control 35 ± 17%): 3 ± 3%
- reduction of FtsZ pellet compared to control [12]: 17%
- effect on cell morphology and membrane [13]: no changes in the morphology
- IC50 ([14]; Streptococcus pneumoniae TIGR4, inhibition of proliferation): 1 ± 0.01 µM
- MIC ([14]; TIGR4, 24 h, Streptococcus pneumoniae TIGR4, agar dilution, 24 h, read-out: MIC): 2 µM
- MIC ([14]; TIGR4, S. pneumoniae, converted from µM, read-out: MIC (equivalent)): ≤ 0.7 mg/L
- FtsZ aggregation (TEM) ([15]; 10 μM SpnFtsZ): large aggregates were seen throughout the grid
- length of FtsZ filaments (TEM) ([15]; control 2.1 ± 1.2 μm): 0.7 ± 0.6 μm
- effect on nucleoid separation ([16]; DAPI): no effect on the nucleoid separation
- percentage of cells without a Z-ring ([16]; control 50%): 73%
- effect on FtsZ polymerization (light scattering) [17]: inhibits FtsZ polymerization
- effect on cell membrane [18]: remains intact

SMILES: O=C(CCc1ccc(O)cc1)c1cccc(Cc2ccc(O)cc2)c1O [Compound 2, 1-{2-Hydroxy-3-(4-hydroxybenzyl)phenyl}-3-(4-hydroxyphenyl)propan-1-one]
- inhibition at 15 µM ([6]; Bacillus subtilis, 168, treatment with 15 µM, read-out: inhibition of growth of B. subtilis (Bs168)): 21.5 ± 0.5%
